Assay results taken from patent US8337869B2, “Analgesic cream” (priority 2007, dated 2012).

Key:
[1] = test system: PGE2; assay: Inhibition of PGE2 production by DPG; settings: concentrations of DPG contained in Theraflex
[2] = test system: LTB4; assay: Inhibition of LTB4 production by DPG; settings: concentrations of DPG contained in Theraflex

## CC1(C)[C@@H](O[C@H]2O[C@H](C(=O)[O-])[C@@H](O)[C@H](O)[C@H]2O[C@@H]2O[C@H](C(=O)[O-])[C@@H](O)[C@H](O)[C@H]2O)CC[C@]2(C)[C@H]3C(=O)C=C4[C@@H]5C[C@@](C)(C(=O)O)CC[C@]5(C)CC[C@@]4(C)[C@]3(C)CC[C@@H]12.[K+].[K+] [DPG, dipotassium glycyrrhizinate]
[1]
  inhibition of production of PGE2: greater than 50%
[2]
  inhibition of production of LTB4: greater than 50%
